# Experimental data published in patent publication US10806140B2, “Antimicrobial compound” (Physical Sciences, Inc., priority 2018, dated 2020).
# How the values were obtained:
# E. Coli = assay: JIS Z 2801 antimicrobial test of metallic coupons, E. Coli; assay type: cell-based; conditions: clear anodized aluminum coupon, front side; vs control without dendrimer; 24 hours
# Description: The AM testing was performed using the standardized JIS Z 2801 method against the Gram negative, E. Coli bacteria. A summary of the procedure is presented below:
# The test microorganism is prepared, usually by growth in a liquid culture medium. • The suspension of test microorganism is standardized by dilution in a nutritive broth (this affords microorganisms the opportunity to proliferate during the test). • Control and test surfaces are inoculated with microorganisms, and then the microbial inoculum is covered with a thin, sterile film. Covering the inoculum spreads it, prevents it from evaporating, and ensures close contact with the antimicrobial surface. • Microbial concentrations are determined at “time zero” by elution followed by dilution and plating to agar. • A control is run to verify that the neutralization/elution method effectively neutralizes the antimicrobial agent in the antimicrobial surface being tested. • Inoculated, covered control and antimicrobial test surfaces are allowed to incubate undisturbed in a humid environment for 24 hours, usually at body temperature. • After incubation, microbial concentrations are determined. Reduction of microorganisms relative to the control surface is calculated.
# K. pneumoniae = assay: AATCC 100 antimicrobial test of fabrics, K. pneumoniae; assay type: cell-based; conditions: for AM efficacy against K. Pneumoniae (FIG. 37): derivatized cotton swatches
# Description: (§1) The antimicrobial testing during this effort was performed. The evaluation of the AM efficacy has been performed using a standard method, based on the AATCC 100 protocol.
# (§2) The experimental procedure starts with 1 mL of a bacterial culture (S. aureus representative for Gram positive bacteria or K. pneumoniae representative for Gram negative bacteria) which is inoculated to 2-3 fabric swatches (full absorption). The mixture is incubated for selected times. The mixture is then diluted with PBS and a bacterial culture (agar plate) is performed. The colony forming units (CFUs) are determined and the results are expressed as kill efficiency (percentage kill relative to the initial concentration).
# The silver fabrics are considered to be the state-of the art in the realm of AM textiles. Two silver-based consumer products (cotton fabrics) were selected for evaluation of their AM properties compared to those of QAC-I derivatized cotton. The first material comprised a silver-shirt which contained silver nanoparticles. The second material was a silver-towel which contained a permanent coating of silver ions. Swatches of both products were generated and the antimicrobial efficacy was tested using the AATCC 100 protocol (K. Pneumoniae at 4, 24 and 48 hrs. time points).
# S. aureus = assay: AATCC 100 antimicrobial test of derivatized fabrics, S. aureus; assay type: cell-based; conditions: for % Kill at 4 hours / % Kill at 24 hours: dendrimer attached to cotton fabric, S. aureus; for % kill at 4 hrs.: direct functionalization, ~1×10^6 CFU/mL; for % Kill of laundered fabric (4 hrs.): derivatized cotton
# Description: The antimicrobial testing during this effort was performed. […] The mixture is incubated for selected times. The mixture is then diluted with PBS and a bacterial culture (agar plate) is performed. The colony forming units (CFUs) are determined and the results are expressed as kill efficiency (percentage kill relative to the initial concentration).
# MS2 = conditions: derivatized cotton fabrics
# Text: Cotton fabrics derivatized with imidazolium dendrimer were further evaluated for the AM efficacy against other pathogens.
# [1] = tested on: skin of New Zealand White rabbits; assay: Direct Primary Skin Irritation Test - ISO; assay type: in vivo
# Description: Cotton fabrics derivatized with QAC-I dendrimer was evaluated at Toxikon for skin irritation using a GLP protocol based on “Direct Primary Skin Irritation Test—ISO”. The test article was evaluated for its potential to produce primary skin irritation after a single topical minimum 4 hour application to the skin of New Zealand White rabbits. Test sites were scored for erythema and/or edema.
# S. Epidermisis = assay: Broad spectrum AM testing of derivatized cotton, S. Epidermisis; assay type: cell-based; conditions: derivatized cotton fabrics
# Description: as §1, §2
# (§3) The QAC-I derivatized cotton fabrics were evaluated against several strains of Gram positive and Gram negative bacteria and one fungus (C. Albicans).
# C. Albicans = assay: Broad spectrum AM testing of derivatized cotton, C. Albicans; assay type: cell-based; conditions: derivatized cotton fabrics
# Description: as §1, §2, §3
# MRSA = assay: Additional AM testing of derivatized cotton, MRSA; assay type: cell-based; conditions: derivatized cotton fabrics
# [2] = tested on: C. Difficile (vegetative); assay: Additional AM testing of derivatized cotton, C. Difficile vegetative cells; assay type: cell-based; conditions: derivatized cotton fabrics
# C. Difficile (spores) = assay: Additional AM testing of derivatized cotton, C. Difficile spores; assay type: cell-based; conditions: derivatized cotton fabrics
structure (smiles),measurement,setting,value
CCCCCCCCCCn1cc[n+](CCNC(=O)NCCCNC(=O)CCN(CCCNC(=O)CCN(CCC(=O)NCCCN(CCC(=O)NCCCNC(=O)NCC[n+]2ccn(CCCCCCCCCC)c2C)CCC(=O)NCCCNC(=O)NCC[n+]2ccn(CCCCCCCCCC)c2C)CCc2ccc(NC(=O)CP(=O)(O)O)cc2)CCC(=O)NCCCNC(=O)NCC[n+]2ccn(CCCCCCCCCC)c2C)c1C.[Cl-].[Cl-].[Cl-].[Cl-] [AM compound (1)],log reduction of the inoculum,E. Coli,> 6 log
same,reduction of the inoculum (%),E. Coli,> 99.9999%
CCCCCCCCCCCC[N+](C)(C)CCNC(=O)NCCCNC(=O)CCN(CCCNC(=O)CCN(CCC(=O)NCCCN(CCC(=O)NCCCNC(=O)NCC[N+](C)(C)CCCCCCCCCCCC)CCC(=O)NCCCNC(=O)NCC[N+](C)(C)CCCCCCCCCCCC)CCc1ccc(Nc2nc(Cl)nc(Cl)n2)cc1)CCC(=O)NCCCNC(=O)NCC[N+](C)(C)CCCCCCCCCCCC.[Cl-].[Cl-].[Cl-].[Cl-] [QAC-4],AM efficacy against K. Pneumoniae (FIG. 37),K. pneumoniae,very high efficacy
same,% Kill at 4 hours,S. aureus,>99%
same,% Kill at 24 hours,S. aureus,62%
CCCCCCCCCCCCCCCCCC[N+](C)(C)CCNC(=O)NCCCNC(=O)CCN(CCCNC(=O)CCN(CCC(=O)NCCCN(CCC(=O)NCCCNC(=O)NCC[N+](C)(C)CCCCCCCCCCCCCCCCCC)CCC(=O)NCCCNC(=O)NCC[N+](C)(C)CCCCCCCCCCCCCCCCCC)CCc1ccc(Nc2nc(Cl)nc(Cl)n2)cc1)CCC(=O)NCCCNC(=O)NCC[N+](C)(C)CCCCCCCCCCCCCCCCCC.[Cl-].[Cl-].[Cl-].[Cl-] [QAC-C18],% Kill at 4 hours,S. aureus,78%
same,% Kill at 24 hours,S. aureus,11%
CCCCCCCCCCCC[N+](C)(CCCCCCCCCCCC)CCNC(=O)NCCCNC(=O)CCN(CCCNC(=O)CCN(CCC(=O)NCCCN(CCC(=O)NCCCNC(=O)NCC[N+](C)(CCCCCCCCCCCC)CCCCCCCCCCCC)CCC(=O)NCCCNC(=O)NCC[N+](C)(CCCCCCCCCCCC)CCCCCCCCCCCC)CCc1ccc(Nc2nc(Cl)nc(Cl)n2)cc1)CCC(=O)NCCCNC(=O)NCC[N+](C)(CCCCCCCCCCCC)CCCCCCCCCCCC.[Cl-].[Cl-].[Cl-].[Cl-] [QAC-D],% Kill at 4 hours,S. aureus,−38%
CCCCCCCCCCn1cc[n+](CCNC(=O)NCCCNC(=O)CCN(CCCNC(=O)CCN(CCC(=O)NCCCN(CCC(=O)NCCCNC(=O)NCC[n+]2ccn(CCCCCCCCCC)c2C)CCC(=O)NCCCNC(=O)NCC[n+]2ccn(CCCCCCCCCC)c2C)CCc2ccc(Nc3nc(Cl)nc(Cl)n3)cc2)CCC(=O)NCCCNC(=O)NCC[n+]2ccn(CCCCCCCCCC)c2C)c1C.[Cl-].[Cl-].[Cl-].[Cl-] [QAC-I],% Reduction,MS2,99.95%
same,AM Efficacy (max.),"K. pneumoniae; derivatized cotton fabrics, K. Pneumoniae",>99.99%
same,AM efficacy against K. Pneumoniae (FIG. 37),K. pneumoniae,very high efficacy
same,Skin irritation classification,[1]; criteria of the protocol,negligible irritant
same,Edema score,"[1]; test sites, 24 Hours, Site 1",0/0
same,Erythema score,"[1]; test sites, 24 Hours, Site 1",0/0
same,Edema score,"[1]; test sites, 24 Hours, Site 2",0/0
same,Erythema score,"[1]; test sites, 24 Hours, Site 2",0/0
same,Edema score,"[1]; test sites, 48 Hours, Site 1",0/0
same,Erythema score,"[1]; test sites, 48 Hours, Site 1",0/0
same,Edema score,"[1]; test sites, 48 Hours, Site 2",0/0
same,Erythema score,"[1]; test sites, 48 Hours, Site 2",0/0
same,Edema score,"[1]; test sites, 60 Minutes, Site 1",0/0
same,Erythema score,"[1]; test sites, 60 Minutes, Site 1",0/0
same,Edema score,"[1]; test sites, 60 Minutes, Site 2",0/0
same,Erythema score,"[1]; test sites, 60 Minutes, Site 2",0/0
same,Edema score,"[1]; test sites, 72 Hours, Site 1",0/0
same,Erythema score,"[1]; test sites, 72 Hours, Site 1",0/0
same,Edema score,"[1]; test sites, 72 Hours, Site 2",0/0
same,Erythema score,"[1]; test sites, 72 Hours, Site 2",0/0
same,Total (Erythema + Edema Scores)/(2 Test Sites × 3 Observation Points),"[1]; test sites, per animal, 60 minute scores not included",0.0
same,AM Efficacy (max.),S. Epidermisis,>99.99%
same,AM Efficacy (max.),C. Albicans,>99.99%
same,% Reduction,MRSA,99.80%
same,% Reduction,[2],99.20%
same,% Kill at 4 hours,S. aureus,>99%
same,% Kill at 24 hours,S. aureus,>99%
same,% kill at 4 hrs.,S. aureus; derivatized NYCO fabric,> 99%
same,AM Efficacy (max.),"S. aureus; derivatized cotton fabrics, S. Aureus",>99.999%
same,% Kill of laundered fabric (4 hrs.),"S. aureus; reverse protocol, laundering detergent None, S. Aureus, % kill relative to final amount of bacteria",>99.99%
same,% Kill of laundered fabric (4 hrs.),"S. aureus; 1 accelerated cycle 45 minutes at 49° C., Tide 0.23% w/v, S. Aureus",24%
same,% Kill of laundered fabric (4 hrs.),"S. aureus; 1 accelerated cycle 45 minutes at 49° C., Tween-20 0.23% w/v, S. Aureus",>99.99%
same,% kill at 4 hrs.,S. aureus; derivatized polyester fabric,> 99%
same,% Reduction,C. Difficile (spores),99.82%
